Measured values reported in patent US10053485B2, “Cytotoxic agents that preferentially target leukemia inhibitory factor (LIF) for the treatment of malignancies and as new contraceptive agents” (Evestra, Inc., priority 2015, dated 2018).

Tests used:
NCI-H460 = test: NCI-60 screen, Non-Small Cell Lung Cancer panel; assay type: cell-based; details: Homo sapiens, NCI-H460, 48 h
[1] = tested on: MDM2 / P53 in MCF-7 cells; test: P53 / MDM2 levels in MCF-7 cells (FIG. 5); assay type: cell-based, human
OVCAR-5 = test: NCI-60 screen, Ovarian Cancer panel; assay type: cell-based; details: Homo sapiens, OVCAR-5, 48 h
HT29 = test: NCI-60 screen, Colon Cancer panel; assay type: cell-based; details: Homo sapiens, HT-29, 48 h
SN12C = test: NCI-60 screen, Renal Cancer panel; assay type: cell-based; details: Homo sapiens, 48 h
UACC-62 = test: NCI-60 screen, Melanoma panel; assay type: cell-based; details: Homo sapiens, UACC-62, 48 h
IGROV1 = test: NCI-60 screen, Ovarian Cancer panel; assay type: cell-based; details: Homo sapiens, IGROV-1; IGROV1, 48 h, SRB; read-out: GI50 (log10GI50) (converted)
Method: Additional four, 10-fold or ½ log serial dilutions are made to provide a total of five drug concentrations plus control.
For adherent cells, the assay is terminated by the addition of cold TCA. Cells are fixed in situ by the gentle addition of 50 μl of cold 50% (w/v) TCA (final concentration, 10% TCA) and incubated for 60 minutes at 4° C. The supernatant is discarded, and the plates are washed five times with tap water and air dried. Sulforhodamine B (SRB) solution (100 μl) at 0.4% (w/v) in 1% acetic acid is added to each well, and plates are incubated for 10 minutes at room temperature. After staining, unbound dye is removed by washing five times with 1% acetic acid and the plates are air dried. […] Using the seven absorbance measurements [time zero, (Tz), control growth, (C), and test growth in the presence of drug at the five concentration levels (Ti)], the percentage growth is calculated at each of the drug concentrations levels.
Three dose response parameters are calculated for each experimental agent. […] The drug concentration resulting in total growth inhibition (TGI) is calculated from Ti=Tz. […] Values are calculated for each of these three parameters if the level of activity is reached; however, if the effect is not reached or is exceeded, the value for that parameter is expressed as greater or less than the maximum or minimum concentration tested.

LNCaP (AR+ Prostate) = test: Short term (72 h) cytotoxicity assay; assay type: cell-based
SF-268 = test: NCI-60 screen, CNS Cancer panel; assay type: cell-based; details: Homo sapiens, SF-268, 48 h
HOP-62 = test: NCI-60 screen, Non-Small Cell Lung Cancer panel; assay type: cell-based; details: Homo sapiens, HOP-62, 48 h, read-out: GI50 (log10GI50) (converted)
SNB-19 = test: NCI-60 screen, CNS Cancer panel; assay type: cell-based; details: Homo sapiens, SNB-19, 48 h
DU-145 = test: NCI-60 screen, Prostate Cancer panel; assay type: cell-based; details: Homo sapiens, DU-145, 48 h, read-out: GI50 (log10GI50) (converted)
[2] = read-out: GI50 (log10GI50) (converted)
[3] = read-out: LC50 (log10LC50) (converted)

C#CC(F)(F)[C@]1(O)CCC2C3CCC4=CC(=O)CCC4=C3C(c3ccc(C4CC4)cc3)C[C@@]21C (stereo partly drawn) [EC330, 17α-(1,1-difluoro-2-propyn-1-yl)-17β-hydroxy-11β-[4-p-(cyclopropyl)phenyl]estra-4,9-dien-3-one]
GI50 (NCI-H460; [2]): 2690 nM | CC50 (NCI-H460; [3]): > 100000 nM | P53 levels / MDM2 [1]: restore P53 levels by inhibiting MDM2 | GI50 (OVCAR-5; [2]): 1070 nM | CC50 (OVCAR-5; [3]): > 100000 nM | GI50 (HT29; [2]): < 10 nM | CC50 (HT29; [3]): 692 nM | GI50 (SN12C; [2]): 3800 nM | CC50 (SN12C; [3]): > 100000 nM | GI50 (UACC-62; [2]): 1950 nM | CC50 (UACC-62; [3]): > 100000 nM | GI50 (IGROV1): < 10 nM | IC50 (LNCaP (AR+ Prostate)): 53 nM | GI50 (SF-268; [2]): 126 nM | CC50 (SF-268; [3]): 1550 nM | GI50 (HOP-62): 14.1 nM | GI50 (SNB-19; [2]): 3800 nM | CC50 (SNB-19; [3]): > 100000 nM | GI50 (DU-145): 1910 nM
